Data on one compound can be found in ChEMBL document CHEMBL5120859, “Optimization of 4-arylthiophene-3-carboxylic acid derivatives as inhibitors of ANO1: Lead optimization studies toward their analgesic efficacy for inflammatory pain” (Eur J Med Chem, 2022).

Type in all cases: ADME, organism-based
Data set [1] can be described thus: MRT (0 to t) in C57BL/6 mouse at 40 mg/kg,IG measured upto 24 hrs by HPLC-MS/MS analysis. The conditions noted are these: in vivo, po.
Data set [2] is described as follows: Ratio of drug concentration in brain to plasma in C57BL/6 mouse at 40 mg/kg,IG measured after 24 hrs by HPLC analysis. The conditions noted are these: po.
The nature of data set [3]: Ratio of drug concentration in brain to plasma in C57BL/6 mouse at 40 mg/kg,IG measured after 6 hrs by HPLC analysis. The conditions noted are these: po.

As a reminder, the MRT last is the average time that molecules of a dose stay in the body. In turn, `O=C(Nc1scc(-c2ccc(Cl)cc2)c1C(=O)O)c1cc(F)ccc1F` had an MRT last at 24 h in data set [1] of 5.4 h. The Ratio in data set [2] turned out to be 4.5%; in data set [3], 1.4%.
